Tests used:
Format in all cases: cell-based
Clostridium ljungdahlii = experiment: Formation of acetic acid and ethanol from synthesis gas with Clostridium ljungdahlii and refeeding of cysteine
Description: For the biotransformation of hydrogen and carbon dioxide to acetic acid and ethanol the homoacetogenic bacterium Clostridium ljungdahlii was cultivated on synthesis gas with refeeding of cysteine. All cultivation steps were carried out under anaerobic conditions in pressure-resistant glass bottles that can be closed airtight with a butyl rubber stopper.
The chemolithoautotrophic cultivation was carried out in a 1 L pressure-resistant glass bottle at 37° C., 100 rpm and a ventilation rate of 3 L/h with a premixed gas with 67% H2, 33% CO2 in an open water bath shaker for 69 h till OD600nm>0.4. The gas was discharged into the medium through a sparger with a pore size of 10 μm, which was mounted in the center of the reactors. Then the cell suspension was centrifuged and the cell pellet was resuspended in fresh CGF1 Medium.
For the production phase, as many washed cells from the preculture of C. ljungdahlii as necessary for an OD600nm of 0.2 were added to 100 ml mineral medium (CGF1 medium, pH 6.5, 1.4 g/L KOH, 2 g/L (NH4)2SO4, 1 g/L KH2PO4, 1 g/L K2HPO4, 10 mg/L FeSO4×7H2O, 3.8 mg/L MnSO4×1H2O, 246 mg/L MgSO4×7H2O, aerated for 30 min with a premixed gas with 67% H2 and 33% CO2). […] The cultivation was carried out in 500 mL pressure-resistant glass bottles at 37° C., 150 rpm in an open water bath shaker for 163 h which were aerated to an overpressure of 0.8 bar with a premixed gas with 67% H2, 33% CO2 one time a day. The pH was hold >5.0 by intermittent additions of a 140 g/L KOH solution. During the cultivation several 5 mL samples were taken to determinate OD600nm, pH und product formation. […] The determination of the product concentrations was performed by semiquantitative 1H-NMR spectroscopy. As an internal quantification standard sodium trimethylsilylpropionate (T (M) SP) was used.

[1] = system: Clostridium autoethanogenum together with Clostridium kluyveri in a co-culture; experiment: Continuous co-culture of Clostridium autoethanogenum and Clostridium kluyveri with low potassium thioacetate concentration
Description: (§1) The homoacetogenic bacterium Clostridium autoethanogenum was cultivated together with the chain elongating bacterium Clostridium kluyveri in a co-culture on synthesis gas in a mineral medium with potassium thioacetate as reduced sulfur source. The cultivation was carried out under anaerobic conditions in a pressure-resistant stainless steel bubble column loop reactor.
(§2) The cultivation was run at 37° C. and an overpressure of 2 bar as a continuous fermentation with continuous feeding of 300 L/h of a mixture of water, substrates, salts, trace elements and vitamins. The pH was automatically hold at 5.80 with ammonia feeding. The outlet stream of 300 L/h out of the fermenter was for 98.2% as permeate with cell retention and for 1.8% as purge without cell retention.
(§3) The culture was previously inoculated with cells from fresh cultures of C. autoethanogenum and C. kluyveri and was already running since >10.000 h full continuously as stable coculture at an optical density (OD600nm) of ˜ 9.0. Fresh medium was continuously fed into the reactor and fermentation broth continuously removed from the reactor with a dilution rate of 2.8 d^−1. During cultivation several 5 mL samples were taken to determinate OD600nm, PH und product formation. The determination of the product concentrations was performed by semiquantitative 1H-NMR spectroscopy. As an internal quantification standard sodium trimethylsilylpropionate (T (M) SP) was used.

[2] = system: Clostridium autoethanogenum together with Clostridium kluyveri in a co-culture; experiment: Continuous co-culture of Clostridium autoethanogenum and Clostridium kluyveri with high potassium thioacetate concentration
Description: as §1, §2
as §3, with “>13.000” for “>10.000”, “11.8.” for “9.0.”

[3] = culture C (refed with L-cysteine-hydrochloride) versus cultures A and B, production phase
[4] = 10.69 mg/L potassium thioacetate in media feed (before decrease)
[5] = 50 h after decreasing potassium thioacetate in media feed to 10% (1.69 mg/L)
[6] = 10.69 mg/L potassium thioacetate in media feed (before increase)
[7] = 50 h, 100 h and 150 h after increasing potassium thioacetate in media feed to 300% (32.07 mg/L)

Structure (SMILES): Cl.N[C@@H](CS)C(=O)O [L-cysteine, L-cysteine-hydrochloride]
- OD(600 nm) (Clostridium ljungdahlii; culture A, initial 400 mg/L L-cysteine-hydrochloride, no refeed, 0 h): 0.206
- OD(600 nm) (Clostridium ljungdahlii; culture A, initial 400 mg/L L-cysteine-hydrochloride, no refeed, 18.75 h): 0.232
- OD(600 nm) (Clostridium ljungdahlii; culture A, initial 400 mg/L L-cysteine-hydrochloride, no refeed, 41.5 h): 0.293
- OD(600 nm) (Clostridium ljungdahlii; culture A, initial 400 mg/L L-cysteine-hydrochloride, no refeed, 46.75 h): 0.281
- OD(600 nm) (Clostridium ljungdahlii; culture A, initial 400 mg/L L-cysteine-hydrochloride, no refeed, 65.5 h): 0.324
- OD(600 nm) (Clostridium ljungdahlii; culture A, initial 400 mg/L L-cysteine-hydrochloride, no refeed, 69.5 h): 0.366
- OD(600 nm) (Clostridium ljungdahlii; culture A, initial 400 mg/L L-cysteine-hydrochloride, no refeed, 89.75 h): 0.324
- OD(600 nm) (Clostridium ljungdahlii; culture A, initial 400 mg/L L-cysteine-hydrochloride, no refeed, 163.5 h): 0.339
- OD(600 nm) (Clostridium ljungdahlii; culture B, initial 200 mg/L L-cysteine-hydrochloride, no refeed, 0 h): 0.197
- OD(600 nm) (Clostridium ljungdahlii; culture B, initial 200 mg/L L-cysteine-hydrochloride, no refeed, 18.75 h): 0.261
- OD(600 nm) (Clostridium ljungdahlii; culture B, initial 200 mg/L L-cysteine-hydrochloride, no refeed, 41.5 h): 0.279
- OD(600 nm) (Clostridium ljungdahlii; culture B, initial 200 mg/L L-cysteine-hydrochloride, no refeed, 46.75 h): 0.269
- OD(600 nm) (Clostridium ljungdahlii; culture B, initial 200 mg/L L-cysteine-hydrochloride, no refeed, 65.5 h): 0.271
- OD(600 nm) (Clostridium ljungdahlii; culture B, initial 200 mg/L L-cysteine-hydrochloride, no refeed, 69.5 h): 0.259
- OD(600 nm) (Clostridium ljungdahlii; culture B, initial 200 mg/L L-cysteine-hydrochloride, no refeed, 89.75 h): 0.241
- OD(600 nm) (Clostridium ljungdahlii; culture B, initial 200 mg/L L-cysteine-hydrochloride, no refeed, 163.5 h): 0.237
- cell growth (Clostridium ljungdahlii; [3]): stronger cell growth than cultures A and B
- concentrations of acetate and ethanol (Clostridium ljungdahlii; [3]): increased more than in culture A and B
- OD(600 nm) (Clostridium ljungdahlii; culture C, initial 200 mg/L L-cysteine-hydrochloride, refed 200 mg/L after 18, 41, 65, 89 h, 0 h): 0.209
- OD(600 nm) (Clostridium ljungdahlii; culture C, initial 200 mg/L L-cysteine-hydrochloride, refed 200 mg/L after 18, 41, 65, 89 h, 18.75 h): 0.245
- OD(600 nm) (Clostridium ljungdahlii; culture C, initial 200 mg/L L-cysteine-hydrochloride, refed 200 mg/L after 18, 41, 65, 89 h, 41.5 h): 0.339
- OD(600 nm) (Clostridium ljungdahlii; culture C, initial 200 mg/L L-cysteine-hydrochloride, refed 200 mg/L after 18, 41, 65, 89 h, 46.75 h): 0.335
- OD(600 nm) (Clostridium ljungdahlii; culture C, initial 200 mg/L L-cysteine-hydrochloride, refed 200 mg/L after 18, 41, 65, 89 h, 65.5 h): 0.399
- OD(600 nm) (Clostridium ljungdahlii; culture C, initial 200 mg/L L-cysteine-hydrochloride, refed 200 mg/L after 18, 41, 65, 89 h, 69.5 h): 0.392
- OD(600 nm) (Clostridium ljungdahlii; culture C, initial 200 mg/L L-cysteine-hydrochloride, refed 200 mg/L after 18, 41, 65, 89 h, 89.75 h): 0.431
- OD(600 nm) (Clostridium ljungdahlii; culture C, initial 200 mg/L L-cysteine-hydrochloride, refed 200 mg/L after 18, 41, 65, 89 h, 95.5 h): 0.434
- OD(600 nm) (Clostridium ljungdahlii; culture C, initial 200 mg/L L-cysteine-hydrochloride, refed 200 mg/L after 18, 41, 65, 89 h, 163.5 h): 0.481

Structure (SMILES): CC(=O)[S-].[K+] [potassium thioacetate]
- CO2 turnover [1, 4]: 70%
- OD(600 nm) [1, 4]: 9.0
- steady state concentration acetate [1, 4]: ~0.90 g/L
- steady state concentration butyrate [1, 4]: ~0.91 g/L
- steady state concentration ethanol [1, 4]: about 3.27 g/L
- steady state concentration hexanoate [1, 4]: ~3.61 g/L
- CO2 turnover [1, 5]: 50%
- OD(600 nm) [1, 5]: 7.60
- ethanol concentration [1, 5]: 4.37 g/L
- steady state concentration acetate [1, 5]: 0.50 g/L
- steady state concentration butyrate [1, 5]: 0.53 g/L
- steady state concentration hexanoate [1, 5]: 2.41 g/L
- steady state concentration acetate [2, 6]: ~1.10 g/L
- steady state concentration butyrate [2, 6]: ~1.08 g/L
- steady state concentration ethanol [2, 6]: about 2.67 g/L
- steady state concentration hexanoate [2, 6]: ~3.75 g/L
- optical density (OD600nm) ([2]; 10.69 mg/L potassium thioacetate in media feed (before increase), stable coculture): ~11.8
- CO2 turnover [2, 7]: 70%
- OD(600 nm) [2, 7]: 11.80
- steady state concentrations of the educts and products [2, 7]: stayed on the same level
